Series [1] is described as follows: color stability of Olanzapine Form I on exposure at room temperature / in air. The class given is physicochemical. Conditions: Form I from Form E by rapid crystallization in methylene chloride-methanol and step-wise drying, at least 3 months. An excerpt: In another aspect of this invention the new poly-type Olanzapine Form E generated with rapid crystallization in methylene chloride-methanol along with step-wise drying techniques produces non-solvated anhydrous Form I of 2-methyl-4-(4-methyl-1-piperazinyl)-10H-thieno[2,3-b][1,5] benzodiazepine which is stable enough to be used commercially in pharmaceutical formulations.

For series [2] the following is noted: commercially available Form I prepared by prior art methods (U.S. Pat. No. 5,229,382); cited from earlier work.
Series [3] can be described thus: solid-state stability of poly-type Form E at room temperature. The series is classed as physicochemical. As to conditions: step-wise drying converts it to Form I. The source says:
The new poly-type E is stable at room temperature but when subjected to step-wise drying techniques results in substantially pure Olanzapine Form I.

Consider `Cc1cc2c(s1)Nc1ccccc1N=C2N1CCN(C)CC1` [Olanzapine Form I, 2-methyl-4-(4-methyl-1-piperazinyl)-10H-thieno[2,3-b][1,5] benzodiazepine], for which the “color change during exposure at room temperature” value in series [1] is reported as “No color change”. The “color change over time due to exposure in air” value in series [2] is “color is found to change over time”. `Cc1cc2c(s1)Nc1ccccc1N=C2N1CCN(C)CC1` [poly-type E, 2-methyl-4-(4-methyl-1-piperazinyl)-10H-thieno[2,3-b][1,5] benzodiazepine]: the “stability at room temperature” value in series [3] is recorded as “stable”.

The values above are taken from patent publication US20070173496A1, “Novel polymorph E of Olanzapine and preparation of anhydrous non-solvated crystalline polymorphic Form I of 2-methyl-4(4-methyl-1-piperazinyl)-10H-thieno[2,3-b][1,5] benzodiazepine (Olanzapine Form I) from the polymorphic Olanzapine Form E” (priority 2006, published 2007).
